The values that follow come from patent publication US20260184687A1, “DIHYDROINDENE DERIVATIVES AS MALT1 INHIBITORS” (C4X Discovery Limited, priority 2022, published 2026).

What is called IC50 is the concentration that inhibits the measured activity by half.

The target of one assay is T1, FL hMALT1 enzyme (Homo sapiens, UniProt Q9UDY8).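 Further: Cell-free protease assay: enzyme preincubated with compound 30 min at room temperature, then cleavage of fluorogenic Ac-LVSR-AMC substrate (100 µM) tracked by fluorescence (ex 360/em 460 nm).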
T1 sequence (Q9UDY8 1-824): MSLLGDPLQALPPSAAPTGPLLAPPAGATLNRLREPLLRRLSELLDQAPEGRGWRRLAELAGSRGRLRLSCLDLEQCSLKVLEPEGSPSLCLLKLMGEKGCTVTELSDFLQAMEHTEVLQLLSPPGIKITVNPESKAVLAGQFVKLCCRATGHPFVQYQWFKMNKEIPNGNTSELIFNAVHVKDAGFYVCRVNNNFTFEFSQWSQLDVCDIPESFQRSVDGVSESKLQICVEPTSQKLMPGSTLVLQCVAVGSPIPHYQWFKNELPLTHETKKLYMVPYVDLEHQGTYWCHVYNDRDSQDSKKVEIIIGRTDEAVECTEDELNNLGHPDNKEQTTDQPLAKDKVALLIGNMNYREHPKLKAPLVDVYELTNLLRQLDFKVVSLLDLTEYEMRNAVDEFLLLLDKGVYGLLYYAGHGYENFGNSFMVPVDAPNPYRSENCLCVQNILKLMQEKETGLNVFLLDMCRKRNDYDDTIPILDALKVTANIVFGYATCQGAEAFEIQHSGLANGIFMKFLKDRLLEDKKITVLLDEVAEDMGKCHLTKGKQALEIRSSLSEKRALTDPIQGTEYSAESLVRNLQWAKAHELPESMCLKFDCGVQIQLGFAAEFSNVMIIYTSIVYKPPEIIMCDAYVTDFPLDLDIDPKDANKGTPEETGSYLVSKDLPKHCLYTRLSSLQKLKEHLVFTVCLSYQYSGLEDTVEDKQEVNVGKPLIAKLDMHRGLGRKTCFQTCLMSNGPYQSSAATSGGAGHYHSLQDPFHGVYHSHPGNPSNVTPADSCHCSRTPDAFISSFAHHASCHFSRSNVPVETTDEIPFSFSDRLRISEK
The assay can be described thus: biochemical.

In assay [1] the test system is IL-2 release from stimulated Jurkat cells. Briefly: Human IL-2 Release Phenotypic Assay (Assay 3). The conditions noted are these: Jurkat cells (clone E6-1), 200 ng/mL PMA + 300 ng/mL ionomycin, IL-2 by ELISA. Type of assay: cell-based. The procedure: This assay measured the inhibition by MALT1 inhibitors of the IL-2 release from stimulated Jurkat cells, a human immortalized T lymphocyte cell line. IL-2 production from Jurkat cells is regulated by activation of NFκB signalling, which is in turn regulated by MALT1 protease activity.
Jurkat cells (clone E6-1, ATCC) were cultured in RPMI1640 supplemented with 10% (v/v) FBS and 1% (v/v) penicillin/streptomycin (100× liquid stocks). Cells were seeded in 96-well white tissue culture-treated plates (Perkin Elmer) at 50 000 cells/well and incubated overnight at 37° C., 5% CO2. Test compounds in DMSO at half-log dilutions were added to the cells and incubated for 30 mins. Final DMSO concentration was 0.5%. Cells were then stimulated with 200 ng/mL PMA+300 ng/mL ionomycin and incubated for 48 hours. […] IC50 values were calculated using GraphPad Prism using 4-parameter non-linear regression curve fit.
On the technique in general: ELISA stands for enzyme-linked immunosorbent assay.

Take `CN(C(=O)[C@H]1C[C@@]2(CCN2C)C1)[C@@H](c1ccc(NC2Cc3ccccc3C2(C)C)cn1)C(F)(F)F` (single isomer, unassigned) [Example 157]: the IC50 against FL hMALT1 enzyme was 64 nM; in assay [1] (48 hours), 770 nM.
For the compound `CC(=O)N1CCC(C(=O)N(C)[C@@H](c2ccc(N[C@H]3Cc4ccccc4C3(C)C)cn2)C(F)(F)F)CC1` [Example 224, 1-Acetyl-N—((S)-1-(5-(((S)-1,1-dimethyl-2,3-dihydro-1H-inden-2-yl)amino)pyridin-2-yl)-2,2,2-trifluoroethyl)-N-methylpiperidine-4-carboxamide], the IC50 in assay [1] (Homo sapiens, Jurkat, 48 h) was determined as 200 nM.
Still for that read-out and setting: under `CNC(=O)[C@H]1C[C@H](C(=O)N(C)[C@@H](c2ccc(N[C@H]3Cc4ccccc4C3(C)C)cn2)C(F)(F)F)C1` [Example 247, (1,3-trans)-N—((S)-1-(5-(((S)-1,1-Dimethyl-2,3-dihydro-1H-inden-2-yl)amino)pyridin-2-yl)-2,2,2-trifluoroethyl)-N^1,N^3-dimethylcyclobutane-1,3-dicarboxamide] stands 170 nM; under `CN(C(=O)[C@@H]1CCC(=O)NC1)[C@@H](c1ccc(N[C@H]2Cc3ccccc3C2(C)C)nc1)C(F)(F)F` [Example 218, (R)—N—((S)-1-(6-(((S)-1,1-dimethyl-2,3-dihydro-1H-inden-2-yl)amino)pyridin-3-yl)-2,2,2-trifluoroethyl)-N-methyl-6-oxopiperidine-3-carboxamide], 430 nM.
On the same count and under the same terms, under `CC(=O)N1C[C@H](O)C[C@H]1C(=O)N(C)[C@@H](c1ccc(N[C@H]2Cc3ccccc3C2(C)C)cn1)C(F)(F)F` [Example 183, (2S,4R)-1-Acetyl-N—((S)-1-(5-(((S)-1,1-dimethyl-2,3-dihydro-1H-inden-2-yl)amino)pyridin-2-yl)-2,2,2-trifluoroethyl)-4-hydroxy-N-methylpyrrolidine-2-carboxamide] stands 510 nM.
On the same count and under the same terms, under `CC(=O)N1CC[C@@H](C(=O)N(C)[C@@H](c2ccc(N[C@H]3Cc4ccccc4C3(C)C)cn2)C(F)(F)F)C1` [Example 192, (R)-1-Acetyl-N—((S)-1-(5-(((S)-1,1-dimethyl-2,3-dihydro-1H-inden-2-yl)amino)pyridin-2-yl)-2,2,2-trifluoroethyl)-N-methylpyrrolidine-3-carboxamide] stands 440 nM.
Regarding `CC(=O)N1CC[C@H](C(=O)N(C)[C@@H](c2ccc(N[C@H]3Cc4ccccc4C3(C)C)cn2)C(F)(F)F)C1` [Example 169, (S)-1-Acetyl-N—((S)-1-(5-(((S)-1,1-dimethyl-2,3-dihydro-1H-inden-2-yl)amino)pyridin-2-yl)-2,2,2-trifluoroethyl)-N-methylpyrrolidine-3-carboxamide], the IC50 in assay [1] (Homo sapiens, Jurkat, 48 h) was 720 nM.
On the same count and under the same terms, under `CN(C(=O)[C@H]1C[C@H](NS(C)(=O)=O)C1)[C@@H](c1ccc(N[C@H]2Cc3ccccc3C2(C)C)cn1)C(F)(F)F` [Example 222, (1,3-trans)-N—((S)-1-(5-(((S)-1,1-Dimethyl-2,3-dihydro-1H-inden-2-yl)amino)pyridin-2-yl)-2,2,2-trifluoroethyl)-N-methyl-3-(methylsulfonamido)cyclobutane-1-carboxamide] stands 260 nM.
The same measure, in the same setting: under `CN(C(=O)[C@@H]1CCC(=O)N1)[C@@H](c1ccc(N[C@H]2Cc3ccccc3C2(C)C)cn1)C(F)(F)F` [Example 170, (S)—N—((S)-1-(5-(((S)-1,1-Dimethyl-2,3-dihydro-1H-inden-2-yl)amino)pyridin-2-yl)-2,2,2-trifluoroethyl)-N-methyl-5-oxopyrrolidine-2-carboxamide] stands 210 nM; under `Cc1cc2c(cc1C)CC(Nc1ccc([C@H](N(C)C(=O)C3CCS(=O)(=O)CC3)C(F)(F)F)nc1)C2` [Example 260, (S)—N-(1-(5-((5,6-Dimethyl-2,3-dihydro-1H-inden-2-yl)amino)pyridin-2-yl)-2,2,2-trifluoroethyl)-N-methyltetrahydro-2H-thiopyran-4-carboxamide 1,1-dioxide], 860 nM; under `CN(C(=O)[C@@H]1CNC(=O)C1)[C@@H](c1ccc(N[C@H]2Cc3ccccc3C2(C)C)cn1)C(F)(F)F` [Example 160, (S)—N—((S)-1-(5-(((S)-1,1-Dimethyl-2,3-dihydro-1H-inden-2-yl)amino)pyridin-2-yl)-2,2,2-trifluoroethyl)-N-methyl-5-oxopyrrolidine-3-carboxamide], 180 nM.
Same read-out and setting: under `CN(C(=O)[C@H]1CCC(=O)NC1)[C@@H](c1ccc(N[C@H]2Cc3ccccc3C2(C)C)nc1)C(F)(F)F` [Example 219] stands 330 nM; under `CNC(=O)[C@H]1C[C@@H](C(=O)N(C)[C@@H](c2ccc(N[C@H]3Cc4ccccc4C3(C)C)cn2)C(F)(F)F)C1` [Example 240, (1,3-cis)-N^1—((S)-1-(5-(((S)-1,1-Dimethyl-2,3-dihydro-1H-inden-2-yl)amino)pyridin-2-yl)-2,2,2-trifluoroethyl)-N^1,N^3-dimethylcyclobutane-1,3-dicarboxamide], 330 nM; under `CN(C(=O)CC1CCS(=O)(=O)CC1)[C@@H](c1ccc(N[C@H]2Cc3ccccc3C2(C)C)cn1)C(F)(F)F` [Example 196, N—((S)-1-(5-(((S)-1,1-Dimethyl-2,3-dihydro-1H-inden-2-yl)amino)pyridin-2-yl)-2,2,2-trifluoroethyl)-2-(1,1-dioxidotetrahydro-2H-thiopyran-4-yl)-N-methylacetamide], 860 nM.
As for `CN(C(=O)[C@@H]1C[C@@H](O)CN1S(C)(=O)=O)[C@@H](c1ccc(N[C@H]2Cc3ccccc3C2(C)C)cn1)C(F)(F)F` [Example 244, (2S,4R)—N—((S)-1-(5-(((S)-1,1-Dimethyl-2,3-dihydro-1H-inden-2-yl)amino)pyridin-2-yl)-2,2,2-trifluoroethyl)-4-hydroxy-N-methyl-1-(methylsulfonyl)pyrrolidine-2-carboxamide], the IC50 in assay [1] (Homo sapiens, Jurkat, 48 h) came out at 270 nM.
On the same count and under the same terms, under `CN(C(=O)[C@H]1CNC(=O)C1)[C@@H](c1ccc(N[C@H]2Cc3ccccc3C2(C)C)cn1)C(F)(F)F` [Example 166, (R)—N—((S)-1-(5-(((S)-1,1-Dimethyl-2,3-dihydro-1H-inden-2-yl)amino)pyridin-2-yl)-2,2,2-trifluoroethyl)-N-methyl-5-oxopyrrolidine-3-carboxamide] stands 510 nM; under `CC(=O)N[C@H]1C[C@H](C(=O)N(C)[C@@H](c2ccc(N[C@H]3Cc4ccccc4C3(C)C)cn2)C(F)(F)F)C1` [Example 186, (1,3-trans)-3-Acetamido-N—((S)-1-(5-(((S)-1,1-dimethyl-2,3-dihydro-1H-inden-2-yl)amino)pyridin-2-yl)-2,2,2-trifluoroethyl)-N-methylcyclobutane-1-carboxamide], 460 nM.
Same read-out and setting: under `CN(C(=O)[C@H]1C[C@@H](NS(C)(=O)=O)C1)[C@@H](c1ccc(N[C@H]2Cc3ccccc3C2(C)C)cn1)C(F)(F)F` [Example 241, (1,3-cis)-N—((S)-1-(5-(((S)-1,1-Dimethyl-2,3-dihydro-1H-inden-2-yl)amino)pyridin-2-yl)-2,2,2-trifluoroethyl)-N-methyl-3-(methylsulfonamido)cyclobutane-1-carboxamide] stands 400 nM; under `CN(C(=O)[C@@H]1CNC(=O)C1)[C@@H](c1ccc(N[C@H]2Cc3ccc(Cl)cc3C2)cn1)C(F)(F)F` [Example 300, (S)—N—((S)-1-(5-(((S)-5-Chloro-2,3-dihydro-1H-inden-2-yl)amino)pyridin-2-yl)-2,2,2-trifluoroethyl)-N-methyl-5-oxopyrrolidine-3-carboxamide], 350 nM; under `CN(C(=O)C1CCN(S(C)(=O)=O)CC1)[C@@H](c1ccc(N[C@H]2Cc3ccccc3C2(C)C)cn1)C(F)(F)F` [Example 223, N—((S)-1-(5-(((S)-1,1-Dimethyl-2,3-dihydro-1H-inden-2-yl)amino)pyridin-2-yl)-2,2,2-trifluoroethyl)-N-methyl-1-(methylsulfonyl)piperidine-4-carboxamide], 150 nM.
In the case of `CN(C(=O)c1cc[nH]c(=O)c1)C(c1ccc(NC2Cc3ccccc3C2(C)C)nc1)C(F)(F)F` (single isomer, unassigned) [Example 101, N-(1-(6-((1,1-Dimethyl-2,3-dihydro-1H-inden-2-yl)amino)pyridin-3-yl)-2,2,2-trifluoroethyl)-N-methyl-2-oxo-1,2-dihydropyridine-4-carboxamide], the IC50 in assay [1] (48 hours) stood at 2640 nM.
